Data: US6878713B2, “Generation triple-targeting, chiral, broad-spectrum antimicrobial 7-substituted piperidino-quinolone carboxylic acid derivatives, their preparation, compositions and use as medicaments” (Wockhardt Limited, priority 2001, dated 2005)
Values after ≈ are worked out from the molar mass of the structure shown.

Legend:
[1] = system: Fluoroquinolone-Resistant Strains; test: In-vitro antimicrobial test (MIC, two-fold serial agar dilution, NCCLS), Table 18; type: cell-based
Experimental: (§1) The test method was in accordance with the standard NCCLS protocol (Methods for Dilution Antimicrobial Susceptibility Tests for Bacteria that grow Aerobicially, Approved Standards, M7-A5, Fifth Edition, January 2000).
(§2) The antibacterial activities (minimum inhibitory concentration: MIC, […]) were determined by using the two-fold serial agar dilution method recommended by NCCLS. The media used for preculture and main culture were Tryptic Soya broth (Difco) and Mueller Hinton medium (Difco), respectively. The Mueller Hinton agar was supplemented with 5% sheep blood for streptococci. Overnight cultures were diluted with buffered saline (pH 7.2) to the final cell density of 5×10^6-10^7 CFU/ml, and each bacterial suspension was applied with a replicator (Denley's multipoint inoculator, UK) onto a series of Mueller-Hinton agar plates containing antibacterial agents at various concentrations. Final inoculum was approximately 10^4 CFU/spot. The plates were incubated for 18 hrs at 37° C. The MIC was defined as the lowest concentration of an antibacterial agent that inhibits the development of visible microbial growth on agar.

[2] = system: J 744 (mouse macrophage); test: Cytotoxicity test (Alamar blue), J 744 cells, Table 23; type: cell-based; details: 3 hrs drug exposure, further 96 hrs incubation
Experimental: Compounds were evaluated for their cytotoxic potential against two celllines viz. […] Cytotoxic drugs inhibit this reaction resulting into blue coloured well. Minimum drug concentration inhibiting Alamar blue color change i.e. resulting into blue coloured wells for a given drug is considered cytotoxic concentration.

[3] = system: Fluoroquinolone Sensitive Strains; test: In-vitro antimicrobial test (MIC, two-fold serial agar dilution, NCCLS), Table 17; type: cell-based; details: for MICs: hydrochloride
Experimental: as §1, §2

[4] = system: V79 (Chinese Hamster Lung); test: Cytotoxicity test (Alamar blue), V79 cells, Table 23; type: cell-based; details: 3 hrs drug exposure, further 96 hrs incubation
Experimental: Compounds were evaluated for their cytotoxic potential against two […] viz. […] Cells were grown for 3-4days in a culture flask using D-MEM (Dulbecco's Modified Eagle. […] Freshly grown cells were distributed in microtiter plates at a cell density of 10^5-10^6 cells/well and allowed to […] form monolayer by incubating the microtiter plate at […] for 24 hrs. […] Following 3 hrs. of drug exposure, cell were washed with D-MEM and incubated further for 96 hrs. Cytotoxic effects of drugs were monitored through daily microscopic observation and by ascertaining the metabolic status through redox indicator Alamar blue. Healthy actively metabolising cells bring about colour change of Alamar blue from blue to pink within an overnight incubation. Cytotoxic drugs inhibit this reaction resulting into blue coloured well. Minimum drug concentration inhibiting Alamar blue color change i.e. resulting into blue coloured wells for a given drug is considered cytotoxic concentration.

[5] = system: Multidrug-Resistant (MDR) Pneumococcal Infections; test: In-vivo antimicrobial test, systemic infection model (mouse septicemia), Table 22; parameters: species or system Swiss male and female mice; details: oral dosing 1 hour and 5 hours post-infection, survival on day 7, strain resistant to β-lactams, macrolides and fluoroquinolones; for ED50: Streptococcus pneumoniae, po, read-out: ED50 p.o., MDR S. pneumoniae 718; for ED50 p.o., MDR S. pneumoniae 718: hydrochloride
Experimental: The in vivo efficacy was studied through mouse septicemia model of infection in Swiss male and female mice (4 weeks old, 20+2 g weight) using 6 animals in each group. Infective organisms were inoculated intraperitonially. Compound were administered by oral route 1 hour and 5 hours post-infection. […] Appropriate comparators were included in the study.

[6] = Cipro^R S. sanguis 941, hydrochloride
[7] = Escherichia coli, ATCC25922, E. coli ATCC 25922
[8] = S. sanguis ATCC 10556 (Viridans Streptococci group)
[9] = Staphylococcus aureus, ATCC 25923 / MSSA, MSSA ATCC 25923
[10] = Staphylococcus aureus, MRSA, MRSA 032
[11] = Streptococcus mitis, Cipro^R S. mitis 938
[12] = Streptococcus pneumoniae, FQ^R S. pneumoniae 718
[13] = Enterococcus faecalis, ATCC29212, E. faecalis ATCC 29212
[14] = Pseudomonas aeruginosa, P. aeruginosa 27853
[15] = Streptococcus pneumoniae, ATCC49619, S. pneumoniae ATCC 49619

| SMILES | MIC [3, 7] | MIC [3, 8] | MIC [3, 9] | MIC ([1]; Cipro^R S. sanguis 941) | MIC [1, 10] | MIC [1, 11] | MIC [1, 12] | MIC [3, 13] | MIC [3, 14] | MIC [3, 15] | melting point | Cytotoxic concentration, J 744 Macrophage [2] | further results |
| --- | --- | --- | --- | --- | --- | --- | --- | --- | --- | --- | --- | --- | --- |
| Cc1c(N2CCC(N)C(C)(C)C2)c(F)cc2c(=O)c(C(=O)O)cn(C3CC3)c12.Cl (single isomer, unassigned; (+)) [Compound 106, (+)-1-Cyclopropyl-6-fluoro-1,4-dihydro-8-methyl-7-(4-amino-3,3-dimethyl-1-piperidinyl)-4-oxo-quinoline-3-carboxylic acid hydrochloride] | 0.05 µg/mL | 0.1 µg/mL | 0.025 µg/mL | – | – | – | – | – | – | – | – | – | MICs ([1]; Cipro^R S. mitis 938, hydrochloride): 6.25 µg/mL; MICs [1, 6]: 6.25 µg/mL; MICs ([1]; FQ^R S. pneumoniae 718, hydrochloride): 1.56 µg/mL; MICs ([1]; MRSA 032, hydrochloride): 1.56 µg/mL; Cytotoxic concentration, J 744 Macrophage ([2]; hydrochloride): >1000 µg/mL; MICs ([3]; E. faecalis ATCC 29212): 0.2 µg/mL; MICs ([3]; P. aeruginosa 27853): 6.25 µg/mL; MICs ([3]; S. pneumoniae ATCC 49619): 0.1 µg/mL; Cytotoxic concentration, V 79 CHL ([4]; hydrochloride): >1000 µg/mL |
| C[C@H]1COc2c(N3CCN(C)CC3)c(F)cc3c(=O)c(C(=O)O)cn1c23 [S-(−)-levofloxacin, reference compound] | 0.025 µg/mL (≈ 0.0692 µM) | 1.56 µg/mL (≈ 4.32 µM) | 0.2 µg/mL (≈ 0.553 µM) | 12.5 µg/mL (≈ 34.6 µM) | 6.25 µg/mL (≈ 17.3 µM) | 25 µg/mL (≈ 69.2 µM) | 12.5 µg/mL (≈ 34.6 µM) | 0.8 µg/mL (≈ 2.21 µM) | 3.12 µg/mL (≈ 8.63 µM) | 0.8 µg/mL (≈ 2.21 µM) | – | – | ED50 [5]: > 100 mg/kg |
| COc1c(N2CCC(N)C(C)C2)c(F)cc2c(=O)c(C(=O)O)cn(C3CC3)c12 (stereo not drawn) [Compound 1, 1-Cyclopropyl-6-fluoro-1,4-dihydro-8-methoxy-7-(4-amino-3-methyl-1-piperidinyl)-4-oxo-quinoline-3-carboxylic acid] | 0.05 µg/mL (≈ 0.128 µM) | – | 0.05 µg/mL (≈ 0.128 µM) | – | – | – | – | – | – | 0.2 µg/mL (≈ 0.514 µM) | 238 to 240 °C | – | – |
| Cc1c(N2CC[C@@H](N)[C@H](C)C2)c(F)cc2c(=O)c(C(=O)O)cn(C3CC3)c12 (single isomer, unassigned) [Compound 97, trans-1-Cyclopropyl-6-fluoro-1,4-dihydro-8-methyl-7-(4-amino-3-methyl-1-piperidinyl)-4-oxo-quinoline-3-carboxylic acid] | 0.4 µg/mL (≈ 1.07 µM) | 0.2 µg/mL (≈ 0.536 µM) | 0.012 µg/mL (≈ 0.0321 µM) | 3.12 µg/mL (≈ 8.36 µM) | 0.8 µg/mL (≈ 2.14 µM) | 3.12 µg/mL (≈ 8.36 µM) | 3.12 µg/mL (≈ 8.36 µM) | 0.2 µg/mL (≈ 0.536 µM) | 12.5 µg/mL (≈ 33.5 µM) | 0.1 µg/mL (≈ 0.268 µM) | 223 to 225 °C | >1000 µg/mL | Cytotoxic concentration, V 79 CHL [4]: >1000 µg/mL |
| COc1c(N2CCNC(C)C2)c(F)cc2c(=O)c(C(=O)O)cn(C3CC3)c12 (stereo not drawn) [Gatifloxacin] | – | – | – | – | – | – | – | – | – | – | – | – | ED50 [5]: > 100 mg/kg |
| COc1c(N2CCC(N)C(C)(C)C2)c(F)cc2c(=O)c(C(=O)O)cn(C3CC3)c12.Cl (single isomer, unassigned; (-)) [Compound 26, (−)-1-Cyclopropyl-6-fluoro-1,4-dihydro-8-methoxy-7-(4-amino-3,3-dimethyl-1-piperidinyl)-4-oxo-quinoline-3-carboxylic acid hydrochloride] | – | – | – | – | 0.8 µg/mL | – | 0.8 µg/mL | – | – | – | – | >1000 µg/mL | Cytotoxic concentration, V 79 CHL ([4]; hydrochloride): >1000 µg/mL; ED50 p.o., MDR S. pneumoniae 718 [5]: 50 mg/kg |
| COc1c(N2CCC(N)C(C)(C)C2)c(F)cc2c(=O)c(C(=O)O)cn(C3CC3)c12.Cl (single isomer, unassigned; (+)) [Compound 22, (+)-1-Cyclopropyl-6-fluoro-1,4-dihydro-8-methoxy-7-(4-amino-3,3-dimethyl-1-piperidinyl)-4-oxo-quinoline-3-carboxylic acid hydrochloride] | – | – | – | – | – | 0.8 µg/mL | – | – | – | – | – | >1000 µg/mL | MICs [1, 6]: 0.2 µg/mL; MICs ([1]; MRSA 032): 0.8 µg/mL; Cytotoxic concentration, V 79 CHL ([4]; hydrochloride): 1000 µg/mL; ED50 p.o., MDR S. pneumoniae 718 [5]: 20 mg/kg |
| Cc1c(N2CCC(N)C(C)(C)C2)c(F)cc2c(=O)c(C(=O)O)cn(C3CC3)c12.Cl (racemic) [Compound 102, (±)-1-Cyclopropyl-6-fluoro-1,4-dihydro-8-methyl-7-(4-amino-3,3-dimethyl-1-piperidinyl)-4-oxo-quinoline-3-carboxylic acid hydrochloride] | 0.025 µg/mL | 0.025 µg/mL | 0.025 µg/mL | 1.56 µg/mL | 0.8 µg/mL | 1.56 µg/mL | 0.8 µg/mL | 0.05 µg/mL | 3.12 µg/mL | 0.025 µg/mL | – | 1000 µg/mL | Cytotoxic concentration, V 79 CHL [4]: 750 µg/mL; ED50 [5]: 30 mg/kg |
| Cc1c(N2CC[C@@H](N)[C@H](C)C2)c(F)cc2c(=O)c(C(=O)O)cn(C3CC3)c12.Cl (single isomer, unassigned) [Compound 98, trans-1-Cyclopropyl-6-fluoro-1,4-dihydro-8-methyl-7-(4-amino-3-methyl-1-piperidinyl)-4-oxo-quinoline-3-carboxylic acid hydrochloride] | 0.006 µg/mL | 0.025 µg/mL | 0.025 µg/mL | 3.12 µg/mL | 1.56 µg/mL | 1.56 µg/mL | 1.56 µg/mL | 0.1 µg/mL | 1.56 µg/mL | 0.05 µg/mL | 262 to 265 °C | 1000 µg/mL | Cytotoxic concentration, V 79 CHL [4]: 250 µg/mL |
| CCOC(=O)NC1CCN(c2c(F)cc3c(=O)c(C(=O)O)cn(C4CC4)c3c2OC)CC1(C)C (stereo not drawn) [Compound 30, 1-Cyclopropyl-6-fluoro-1,4-dihydro-8-methoxy-7-(4-carbethoxyamino-3,3-dimethyl-1-piperidinyl)-4-oxo-quinoline-3-carboxylic acid] | 0.05 µg/mL (≈ 0.105 µM) | – | 0.05 µg/mL (≈ 0.105 µM) | – | – | – | – | – | – | 0.1 µg/mL (≈ 0.21 µM) | 222 °C | – | – |
| Cc1c(N2CCC(N)C(C)(C)C2)c(F)cc2c(=O)c(C(=O)O)cn(C3CC3)c12 (racemic) [Compound 101, (±)-1-Cyclopropyl-6-fluoro-1,4-dihydro-8-methyl-7-(4-amino-3,3-dimethyl-1-piperidinyl)-4-oxo-quinoline-3-carboxylic acid] | – | – | – | – | – | – | – | – | – | – | 198 to 200 °C | – | – |
| Cc1c(N2CCC(N(C)C)C(C)C2)c(F)cc2c(=O)c(C(=O)O)cn(C3CC3)c12 (stereo not drawn) [Compound 114, 1-Cyclopropyl-6-fluoro-1,4-dihydro-8-methyl-7-(4-dimethylamino-3-methyl-1-piperidinyl)-4-oxo-quinoline-3-carboxylic acid] | 0.05 µg/mL (≈ 0.125 µM) | – | 0.05 µg/mL (≈ 0.125 µM) | – | – | – | – | – | – | 0.05 µg/mL (≈ 0.125 µM) | 221 °C | – | – |
